Experimental data as given in US11369127B2, “Sweetener and flavor compositions, methods of making and methods of use thereof” (EPC Natural Products Co., Ltd., priority 2018, dated 2022).
Entries after “also recorded” stand apart in the source; their conditions may differ.

Columns and labels:
[1] = Kinetics of reaction in dependence of pH-conditions (degradation of Phe and Reb-A, Gluc, Xyl, Suc by HPLC/MS)
Method: Quantitative evaluation was performed using external standardization.
Kinetics of Reaction in Dependence of pH-Conditions

[2] = Sensory evaluation of GSGs and SGs, Thaumatin, NHDC and combinations (Ex. 255); design: species or system human; conditions: in water; 4.5 ppm Thaumatin and/or 50 ppm GSGs and SGs, NHDC 1-5 ppm
Method: 4.5 ppm Thaumatin (equivalent to 10 ppm EPCalin) was dissolved in water. Increasing amounts of NHDC (1-5 ppm) were added to the solution and the sensory properties were evaluated.
50 ppm (GSGs and SGs) were dissolved in water. Increasing amounts of NHDC (1-5 ppm) were added to the solution and the sensory properties were evaluated.
50 ppm (GSGs and SGs) and 4.5 ppm Thaumatin (equivalent to 10 ppm EPCalin) were dissolved in water. Increasing amounts of NHDC (1-5 ppm) were added to the solution and the sensory properties were evaluated.
Sweetness intensity was rated on 5-point scale

[3] = Stevia-derived MRPs with NHDC and Thaumatin, also in Redbull sugarfree (Ex. 261); design: species or system human; conditions: 150 μl sample in 100 ml Redbull sugar free
Method: 150 μl of the each sample was added to 100 ml Redbull sugar free and mixed. The taste profiles of the samples were compared. As a control, a RedBull sugar free sample without the addition of Steviaroma was used.
Before tasting the tasters discussed the upcoming series of samples and tasted samples with predetermined attributes with varying intensities to find a commonality in description. Four trained tasters blind taste tested independently all samples of a series. They were allowed to re-taste and made notes for the sensory attributes perceived including the relative intensity.
In the last step the attributes noted were discussed openly to find an acceptable description. In case that more than 1 taster disagreed with the description, the tasting was repeated.

[4] = DPPH radical-scavenging activity (Ex. 65); assay type: biochemical; conditions: iron-III reduction and DPPH radical scavenging (FIG. 49, 50); 100° C., 0-5 hours
Method: 1 mg 1,1-Diphenyl-2-picrylhydrazyl radical (DPPH)/ml ethanol, dilution to assay concentration were prepared in ethanol (40 μg/mL); Calibration samples were prepared with Ascorbic acid in a concentration of 0-10 μg/mL; as a negative control sample, water was used.
Samples in aqueous solution were used as such or diluted with water.
A 0.1 ml sample (or calibration standard) was mixed with 3.9 ml solution of DPPH (100 μMolar) and reacted while protected from light at room temperature for 30 min. Absorbance was determined at 517 nm against ethanol.
10 mM of amino acid and/or 10 mM sugar were dissolved in 10 ml 0.1 mM KH2PO4-buffer, pH=7.8.
The samples were kept at 100° C. in sealed glass vials (Pyrex 15 ml with screw caps) for 0 (before reaction), 2.5 or 5.0 hours. Thereafter the samples were transferred to an ice water bath and cooled down to room temperature. These samples were diluted 1:10 and used for the test assay for anti-oxidant potential.

O=C(O)[C@H](Cc1ccccc1)NCC(=O)[C@@H](O)[C@H](O)[C@H](O)CO [MRI (Phe-Glu)]
% formation from degraded Phe ([1]; pH = 5.5): <0.10%
% formation from degraded Phe ([1]; pH = 7.0): 0.54%
% formation from degraded Phe ([1]; pH = 8.5): 0.84%

COc1ccc(CCC(=O)c2c(O)cc(O[C@@H]3O[C@H](CO)[C@@H](O)[C@H](O)[C@H]3O[C@@H]3O[C@@H](C)[C@H](O)[C@@H](O)[C@H]3O)cc2O)cc1O [NHDC, Neohesperidin dihydrochalcone]
sensory properties of combinations with NHDC [2]: long lasting lingering; also recorded: boosts the lingering
taste profile in sugarfree beverage [3]: improved the mouth-feel and harmony of taste impression yielding a substantially improved taste profile

C=C1C[C@@]23CC[C@H]4[C@@](C)(CCC[C@@]4(C)C(=O)O[C@@H]4O[C@H](CO)[C@@H](O)[C@H](O)[C@H]4O)[C@@H]2CC[C@]1(O[C@@H]1O[C@H](CO)[C@@H](O)[C@H](O[C@@H]2O[C@H](CO)[C@@H](O)[C@H](O)[C@H]2O)[C@H]1O[C@@H]1O[C@H](CO)[C@@H](O)[C@H](O)[C@H]1O)C3 [Reb-A, Rebaudioside A]
anti-oxidant properties [4]: substantial anti-oxidant properties
